From paper PMC8378262 (Journal of controlled release : official journal of the …, 2021)

Test system: Sprague Dawley rats
Assay: Mean systemic arterial pressure
Format: in vivo
Conditions: healthy rats, intravenous 3 mg/kg

| SMILES | change in mSAP (until 6 h after injection) | duration of the reduction in mSAP after injection | maximum reduction of mSAP from baseline (within 30 min) |
| --- | --- | --- | --- |
| O=[N+]([O-])c1ccc(COc2nccc3c(S(=O)(=O)N4CCCNCC4)cccc23)cc1 [FasPRO, 5-((1,4-diazepan-1-yl)sulfonyl)-1-((4-nitrobenzyl)oxy)isoquinoline] | did not produce any changes in mSAP | – | – |
| O=S(=O)(c1cccc2cnccc12)N1CCCNCC1 [Fasudil, reference compound] | – | 90 min | 38.6±8.4% |
